Activity calls are given as the source filed them. The rule behind the calls is not given here.
How the values were obtained:
B16-F10 [1] = assay: Induction of apoptosis in mouse B16-F10 cells assessed as early apoptotic cells at 8 uM incubated for 48 hrs by Annexin V-FITC/PI staining based flow cytometry analysis (reference value: 0.45 %); assay type: functional
[2] = Toxicity in C57BL/6J mouse implanted with mouse B16-F10 cells assessed as lung damage at 20 to 40 mg/kg, ip administered once daily for 9 days by H and E staining based analysis; assay type: organism-based; settings: in vivo, 216 h, dose 20-40 mg/kg, time 9 day
B16-F10 [3] = assay: Induction of apoptosis in mouse B16-F10 cells assessed as necrotic cells at 2 uM incubated for 48 hrs by Annexin V-FITC/PI staining based flow cytometry analysis (reference value: 2.24%); assay type: functional
B16-F10 [4] = assay: Induction of cell cycle arrest in mouse B16-F10 cells assessed as accumulation of cells at G0/G1 phase at 1 uM incubated for 48 hrs by PI staining based flow cytometry analysis (reference value: 70.09%); assay type: functional
Histone deacetylase 3 = Histone deacetylase 3 (Homo sapiens, UniProt O15379); assay: Inhibition of human recombinant HDAC3 using Ac-Leu-Gly-Lys (Ac)-AMC as substrate preincubated for 10 mins followed by substrate addition and measured after 45 mins by TECAN microtiter plate reader analysis
Histone deacetylase 3, sequence (O15379 whole entry): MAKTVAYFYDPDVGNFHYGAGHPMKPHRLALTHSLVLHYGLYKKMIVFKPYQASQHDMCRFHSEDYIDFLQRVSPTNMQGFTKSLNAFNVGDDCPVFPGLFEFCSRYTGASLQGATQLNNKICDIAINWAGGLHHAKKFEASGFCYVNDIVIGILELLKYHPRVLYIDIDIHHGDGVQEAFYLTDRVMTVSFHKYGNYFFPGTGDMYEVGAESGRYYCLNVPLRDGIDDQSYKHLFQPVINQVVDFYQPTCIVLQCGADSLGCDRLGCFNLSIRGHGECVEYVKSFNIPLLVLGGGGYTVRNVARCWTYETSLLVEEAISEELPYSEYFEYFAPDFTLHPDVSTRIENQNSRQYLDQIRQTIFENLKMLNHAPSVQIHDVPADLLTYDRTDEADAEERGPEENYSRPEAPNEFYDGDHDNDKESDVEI

B16-F10 [5] = assay: Induction of apoptosis in mouse B16-F10 cells assessed as early apoptotic cells at 1 uM incubated for 48 hrs by Annexin V-FITC/PI staining based flow cytometry analysis (reference value: 0.45 %); assay type: functional
Jurkat = assay: Antiproliferative activity against human Jurkat T cells assessed as cell viability incubated for 48 hrs by MTT assay; assay type: functional, cell-based
B16-F10 [6] = assay: Induction of apoptosis in mouse B16-F10 cells assessed as late apoptotic cells at 10 uM incubated for 48 hrs by Annexin V-FITC/PI staining based flow cytometry analysis (reference value: 5.02 %); assay type: functional
B16-F10 [7] = assay: Antitumor activity against mouse B16-F10 cells implanted in C57BL/6J mouse assessed as tumor growth inhibition at 40 mg/kg, ip administered once daily for 9 days; assay type: functional; settings: B16-F10, 216 h, time 9 day, read-out: TGI
[8] = target: T1, Histone deacetylase 3 (Mus musculus) (UniProt O88895); assay: Inhibition of HDAC3 in mouse B16-F10 cells assessed as upregulation of Ac-H3 level incubated for 24 hrs by Western blotting analysis; assay type: cell-based; settings: dose 1-8 µM
T1 sequence (whole entry): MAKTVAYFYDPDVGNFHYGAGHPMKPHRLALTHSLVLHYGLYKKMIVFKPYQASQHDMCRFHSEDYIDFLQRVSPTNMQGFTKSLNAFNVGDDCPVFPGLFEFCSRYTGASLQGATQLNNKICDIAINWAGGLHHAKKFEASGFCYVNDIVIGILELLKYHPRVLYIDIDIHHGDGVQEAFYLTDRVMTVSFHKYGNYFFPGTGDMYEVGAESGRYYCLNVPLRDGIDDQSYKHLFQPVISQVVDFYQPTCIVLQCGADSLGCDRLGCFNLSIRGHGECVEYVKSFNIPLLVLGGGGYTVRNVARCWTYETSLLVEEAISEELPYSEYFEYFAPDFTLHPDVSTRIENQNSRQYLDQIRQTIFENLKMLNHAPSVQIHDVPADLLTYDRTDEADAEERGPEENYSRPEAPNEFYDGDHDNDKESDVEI

[9] = target: T1, Histone deacetylase 3 (Mus musculus); assay: Inhibition of HDAC3 in mouse B16-F10 cells assessed as upregulation of Ac-H3 level at 3 uM incubated for 24 hrs by Western blotting analysis; assay type: cell-based
B16-F10 [10] = assay: Induction of apoptosis in mouse B16-F10 cells assessed as viable cells at 8 uM incubated for 48 hrs by Annexin V-FITC/PI staining based flow cytometry analysis (reference value: 92.3%); assay type: functional; settings: read-out: Activity
MDA-MB-231 = assay: Antiproliferative activity against human MDA-MB-231 cells assessed as cell growth inhibition incubated for 48 hrs by MTT assay; assay type: functional, cell-based; settings: MDA-MB-231, 48 h
B16-F10 [11] = assay: Induction of apoptosis in mouse B16-F10 cells assessed as necrotic cells at 8 uM incubated for 48 hrs by Annexin V-FITC/PI staining based flow cytometry analysis (reference value: 2.24%); assay type: functional
B16-F10 [12] = assay: Induction of cell cycle arrest in mouse B16-F10 cells assessed as accumulation of cells at S phase at 1 uM incubated for 48 hrs by PI staining based flow cytometry analysis (reference value: 24.04%); assay type: functional
B16-F10 [13] = assay: Induction of apoptosis in mouse B16-F10 cells assessed as early apoptotic cells at 10 uM incubated for 48 hrs by Annexin V-FITC/PI staining based flow cytometry analysis (reference value: 0.45 %); assay type: functional
A-375 = assay: Antiproliferative activity against human A-375 cells co-cultured with human Jurkat T cells incubated for 48 hrs by MTT assay; assay type: functional, cell-based; settings: dose 0.0625-1 µM
B16-F10 [14] = assay: Induction of apoptosis in mouse B16-F10 cells assessed as late apoptotic cells at 4 uM incubated for 48 hrs by Annexin V-FITC/PI staining based flow cytometry analysis (reference value: 5.02 %); assay type: functional
4T1 = assay: Antiproliferative activity against mouse 4T1 cells assessed as cell growth inhibition incubated for 48 hrs by MTT assay; assay type: functional, cell-based; settings: 4T1, 48 h
B16-F10 [15] = assay: Induction of cell cycle arrest in mouse B16-F10 cells assessed as accumulation of cells at G2/M phase at 2 uM incubated for 48 hrs by PI staining based flow cytometry analysis (reference value: 5.87%); assay type: functional
B16-F10 [16] = assay: Induction of cell cycle arrest in mouse B16-F10 cells assessed as accumulation of cells at S phase at 8 uM incubated for 48 hrs by PI staining based flow cytometry analysis (reference value: 24.04%); assay type: functional
B16-F10 [17] = assay: Induction of apoptosis in mouse B16-F10 cells assessed as necrotic cells at 1 uM incubated for 48 hrs by Annexin V-FITC/PI staining based flow cytometry analysis (reference value: 2.24%); assay type: functional
HepG2 = assay: Antiproliferative activity against human HepG2 cells assessed as cell growth inhibition incubated for 48 hrs by MTT assay; assay type: functional, cell-based; settings: HepG2, 48 h
B16-F10 [18] = assay: Immunomodulatory activity in mouse B16-F10 cells implanted in C57BL/6J mouse assessed as percentage of CD3 positive CD4 positive cells in tumor at 40 mg/kg, ip administered once daily for 9 days by flow cytometric analysis (reference value: 0.20 %); assay type: functional; settings: time 9 day
B16-F10 [19] = assay: Induction of apoptosis in mouse B16-F10 cells assessed as early apoptotic cells at 2 uM incubated for 48 hrs by Annexin V-FITC/PI staining based flow cytometry analysis (reference value: 0.45 %); assay type: functional
B16-F10 [20] = assay: Induction of cell cycle arrest in mouse B16-F10 cells assessed as accumulation of cells at G2/M phase at 4 uM incubated for 48 hrs by PI staining based flow cytometry analysis (reference value: 5.87%); assay type: functional
B16-F10 [21] = assay: Immunomodulatory activity in mouse B16-F10 cells implanted in C57BL/6J mouse assessed as percentage of CD3 positive CD8 positive cells in tumor at 20 mg/kg, ip administered once daily for 9 days by flow cytometric analysis (reference value: 0.44 %); assay type: functional; settings: time 9 day

IC50 (Histone deacetylase 3): 0.107 µM
inhibition [8]: Dose-dependent-effect
inhibition [9]: Active
IC50 (MDA-MB-231): 3.01 µM
IC50 (4T1): 4.66 µM
IC50 (HepG2): 4 µM
SMILES: CCCNNC(=O)CCCNCc1ccc(-c2cccc(-c3ccccc3)c2C)nc1OC
Activity (B16-F10 [1]): 32.8%
Activity [2]: Non-toxic
Activity (B16-F10 [3]): 4.4%
Activity (B16-F10 [4]): 73.46%
Activity (B16-F10 [5]): 3.34%
Activity (Jurkat): Active
Activity (B16-F10 [6]): 14.8%
inhibition in vivo at 40 mg/kg (B16-F10 [7]): 66.5%
viability at 8 µM (B16-F10 [10]): 53.6%
Activity (B16-F10 [11]): 2.21%
Activity (B16-F10 [12]): 21.79%
Activity (B16-F10 [13]): 52.9%
Activity (A-375): Dose-dependent-effect
Activity (B16-F10 [14]): 16.4%
Activity (B16-F10 [15]): 4.96%
Activity (B16-F10 [16]): 0.5%
Activity (B16-F10 [17]): 2.63%
Activity (B16-F10 [18]): 2.8%
Activity (B16-F10 [19]): 9.81%
Activity (B16-F10 [20]): 3.65%
Activity (B16-F10 [21]): 4.31%
